Experimental data as given in patent US10258664B2, “Methods and compositions for treating pain” (MannKind Corporation, priority 2011, dated 2019).
Residues, ends and D or L forms follow the SMILES beside them.

How the values were obtained:
patient = experiment: Patient examples: inhaled analgesic composition, patient-reported pain; assay type: in vivo, human
Protocol: patient one reports headache pain to their doctor. […] The analgesic composition is 15% peptide. The analgesic composition is administered with a reusable inhaler calibrated to provide a dose of 5 mg/kg of body weight.
A patient undergoing chemotherapy reports stomach pain to their doctor. […] The analgesic composition is 15% peptide. The analgesic composition is administered with a reusable inhaler calibrated to provide a dose of 5 mg/kg of body weight.
(§1) A patient reports back pain to their doctor. Following examination of the patient, the doctor prescribes an analgesic composition containing a FDKP/Trp-(D)Pro-Ser-Phe-NH2 (SEQ ID NO: 3, Compound 3), composition prepared as described in the previous Examples. The analgesic composition is 15% peptide. The analgesic composition is administered with a reusable inhaler calibrated to provide a dose of 4 mg/kg of body weight.
as §1, with “dental” for “back”, “an Na2FDKP/Ac-His-(D)Phe-Arg-(D)Trp-Gly-NH2” for “a FDKP/Trp-(D)Pro-Ser-Phe-NH2”, “6,” for “3,”, “6)” for “3),”, “10%” for “15%”, “7” for “4”
A patient reports pain due to multiple sclerosis to their doctor. […] The analgesic composition is 20% peptide. The analgesic composition is administered with a reusable inhaler calibrated to provide a dose of 3 mg/kg of body weight.
patient two reports muscle pain to their doctor. Following examination of the patient, the doctor prescribes an analgesic composition containing a FDKP/Ac-His-(D)Phe-Arg-(D)Trp-Gly-NH2 (SEQ ID NO: 6, Compound 6) composition prepared as described in the previous Examples. The analgesic composition is 15% peptide. The analgesic composition is administered with a reusable inhaler calibrated to provide a dose of 5 mg/kg of body weight.
A patient reports pain from a broken arm to their doctor. Following examination of the patient, the doctor prescribes an analgesic composition containing a Na2FDKP/Trp-(D)Ser-Ser-Phe-NH2 (SEQ ID NO: 4, Compound 4) composition prepared as described in the previous Examples. The analgesic composition is 25% peptide. The analgesic composition is administered with a reusable inhaler calibrated to provide a dose of 2 mg/kg of body weight.
A patient reports their low pain threshold to their dentist. Following examination of the patient and prior to the dental procedure, the dentist administers an analgesic composition containing a FDKP/Ac-Nle-Gln-His-(D)Phe-Arg-(D)Trp-Gly-NH2 (SEQ ID NO:7, Compound 7) composition prepared as described in the previous Examples. The analgesic composition is 10% peptide. The analgesic composition is administered with a single-use inhaler designed to provide a dose of 5 mg/kg of body weight.

mice [1] = experiment: Conditioned place preference (CPP) study; conditions: 0.125 mg insufflated; FIG. 5
Protocol: In a conditioned place preference (CPP) study to evaluate the “reward” or “aversive” value of the drug, mice are conditioned to associate one compartment of the apparatus with treatment. […] The experiments were conducted similarly as described in the previous examples. […] To test placebo effect, additional mice were insufflated with FDKP (TECHNOSPHERE®) powder (0.5 mg) without any peptide.

mice [2] = experiment: Spontaneous locomotion and respiration in the comprehensive laboratory animal monitoring system (CLAMS); conditions: 0.125 mg by insufflation; for ambulation (spontaneous locomotion): FIG. 4A; for respiration rate: FIG. 4B
mice [3] = experiment: 55° C. warm-water tail withdrawal (tail-flick) assay; assay type: in vivo, mouse; conditions: FIG. 1; for plateau of antinociceptive effect: insufflated
Protocol: Antinociceptive effect was tested in a mouse tail-withdrawal (“tail-flick,” Aldrich et al. 2009) assay in which the tail of a restrained mouse is exposed to water at 55° C. […] Durations shorter than the maximum are reported as a percentage of the time limit. This tail-flick test (also known as the 55° C. warm-water tail withdrawal assay) is an industry acceptable, nonclinical model for assessing the efficacy of analgesics in treating acute pain. To test placebo effect, FDKP (TECHNOSPHERE®) powder (0.5 mg) without any peptide was used in the study. Each animal is tested for baseline tail-withdrawal latency prior to drug administration. Latency to withdraw the tail was subsequently measured in 10 minutes post-drug administration intervals as indicated. A maximum response time of 15 seconds was utilized to prevent tissue damage. Data reported as percent antinociception, as calculated by the following equation: % antinociception is equal to 100 times (test latency minus baseline latency) divided by (15 minus baseline latency).
The tetrapetide, (D)Phe-(D)Phe-(D)Nle-(D)Arg-NH2 (SEQ ID NO: 2, Compound 2) was administered to mice by intraperitoneal (i.p.) injection (3 mg/kg) in a saline solution, and by pulmonary insufflation of a dry powder formulation containing FDKP at various doses, 0.25 mg, 0.125 mg, 0.013 mg, 1.25 μg and 0.13 μg. The tail-flick test was performed for a period of time after administration. […]

**Q.** For “Ac-His-(D)Phe-Arg-(D)Trp-Gly-NH2 (HXRXG; HELM PEPTIDE1{[ac].H.[dF].R.[dW].G.[am]}$$$$V2.0; SMILES CC(=O)N[C@@H](Cc1c[nH]cn1)C(=O)N[C@H](Cc1ccccc1)C(=O)N[C@@H](CCCNC(=N)N)C(=O)N[C@H](Cc1c[nH]c2ccccc12)C(=O)NCC(N)=O) [Compound 6]”, which patient-reported muscle pain (patient; FDKP composition, 15% peptide, inhaled 5 mg/kg, person two) is on record?
**A.** elimination of their muscle pain

**Q.** What about the patient-reported dental pain (patient; Na2FDKP composition, 10% peptide, inhaled 7 mg/kg, person) of the same compound?
**A.** elimination of their dental pain

**Q.** For `NC(=O)[C@H](Cc1ccccc1)NC(=O)[C@H](CO)NC(=O)[C@@H](CO)NC(=O)[C@@H](N)Cc1c[nH]c2ccccc12` [Compound 4, Trp-(D)Ser-Ser-Phe-NH2] (HELM PEPTIDE1{W.[dS].S.F.[am]}$$$$V2.0), which “patient-reported pain from a broken arm” value (patient; Na2FDKP composition, 25% peptide, inhaled 2 mg/kg, person) is on record?
**A.** elimination of their pain

**Q.** Which results are given for `CC[C@@H](C)[C@@H](NC(=O)[C@@H](Cc1ccccc1)NC(=O)[C@H](N)Cc1ccccc1)C(=O)N[C@H](CCCNC(=N)N)C(N)=O` [Compound 1, (D)Phe-(D)Phe-(D)Ile-(D)Arg-NH2]?
**A.** place preference for the drug-paired compartment (mice [1]): no preference for the paired compartment; ambulation (spontaneous locomotion) (mice [2]): comparable to animals receiving placebo; respiration rate (mice [2]): comparable to animals receiving placebo

**Q.** Which “patient-reported pain during dental procedure” value (patient; FDKP composition, 10% peptide, single-use inhaler 5 mg/kg, given before procedure, person) does the source give for “Ac-Nle-Gln-His-(D)Phe-Arg-(D)Trp-Gly-NH2 [Compound 7]” here?
**A.** no pain during the dental procedure

**Q.** With `NC(=O)[C@H](Cc1ccccc1)NC(=O)[C@H](CO)NC(=O)[C@H]1CCCN1C(=O)[C@@H](N)Cc1c[nH]c2ccccc12` [Compound 3, Trp-(D)Pro-Ser-Phe-NH2] (HELM PEPTIDE1{W.[dP].S.F.[am]}$$$$V2.0) as the compound, how does the patient-reported back pain (patient; FDKP composition, 15% peptide, inhaled 4 mg/kg, person) read?
**A.** elimination of their back pain

**Q.** With `CCCC[C@@H](NC(=O)[C@@H](Cc1ccccc1)NC(=O)[C@H](N)Cc1ccccc1)C(=O)N[C@H](CCCNC(=N)N)C(N)=O` [Compound 2, (D)Phe-(D)Phe-(D)Nle-(D)Arg-NH2] (HELM PEPTIDE1{[dF].[dF].[CCCC[C@@H](N[*:1])C(=O)[*:2]].[dR].[am]}$$$$V2.0; N-terminus assumed) as the compound, how does the “antinociception effect versus time” value (mice [3]; all doses: i.p. 3 mg/kg in saline and insufflated FDKP dry powder 0.25 mg to 0.13 μg) read?
**A.** rapidly provided near-complete antinociception

**Q.** And the “time course of antinociceptive effect” value (mice [3]; i.p. injection 3 mg/kg in saline)?
**A.** decayed almost linearly with time

**Q.** And the “dose response of antinociception” value (mice [3]; insufflated FDKP dry powder 0.25 mg to 0.13 μg)?
**A.** clear dose response was evident

**Q.** And the “plateau of antinociceptive effect” value (mice [3]; 0.125 mg dose)?
**A.** approximately 30 minutes

**Q.** What about the “plateau of antinociceptive effect” value (mice [3]; 0.25 mg dose) of the same compound?
**A.** 50 to 55 min

**Q.** What about the “place preference for the drug-paired compartment” value (mice [1]) of the same compound?
**A.** no preference for the paired compartment

**Q.** And the patient-reported headache pain (patient; FDKP composition, 15% peptide, inhaled 5 mg/kg, person one)?
**A.** elimination of their headache pain

**Q.** And the “patient-reported pain due to multiple sclerosis” value (patient; Na2FDKP composition, 20% peptide, inhaled 3 mg/kg, person)?
**A.** elimination of their multiple sclerosis pain

**Q.** What about the “ambulation (spontaneous locomotion)” value (mice [2]) of the same compound?
**A.** comparable to animals receiving placebo

**Q.** And the respiration rate (mice [2])?
**A.** comparable to animals receiving placebo

**Q.** `CN1CC[C@]23c4c5ccc(O)c4O[C@H]2[C@@H](O)C=C[C@H]3[C@H]1C5` [morphine, reference compound] was tested. Which “place preference for the drug-paired compartment” value (mice [1]) did it give?
**A.** strong preference for the associated compartment

**Q.** What about the “ambulation (spontaneous locomotion)” value (mice [2]) of the same compound?
**A.** locomotor hyperactivity

**Q.** And the respiration rate (mice [2])?
**A.** depress the rate of respiration
